The test system of assay [1] is PND5 rat cultures. Briefly: Post natal day 5 rat cortical/subventricular zone cultures, immunostaining. In kind it is cell-based. As for the experimental part: The method of the invention is also exemplified by a second embodiment in which N-[4-[(4-fluorophenyl)sulfonyl]phenyl]acetamide is administered in vitro to tissue from postnatal mammals. Treatment with N-[4-[(4-fluorophenyl)sulfonyl]phenyl]acetamide results in neuroregeneration as evidenced by immunostaining for beta-tubulin, eNCAM and MAP II. Neural tissue harvested from Post Natal day 5 (PND5) animals can be prepared in culture by the method above used with E18 cells, except that the cultures are not treated with glutamate because the neurons are unable to survive the culture preparation step. Using an assay system, cells can be treated with N-[4-[(4-fluorophenyl)sulfonyl]phenyl]acetamide 24 hours after the cultures are established.
In one study, PND-5 day cultures generated from tissue isolated specifically from the subventricular zone were compared to cultures generated from the whole cortex. Twenty four hours after dissection, cultures were treated with the compound. Four weeks after treatment, cultures were immunostained with antibodies against β-tubulin or antibodies against MAP II.
Post natal day 5 rat pups (Taconic Labs) were decapitated, skin covering the cranium was removed so the bone over top the brain could be opened. Using a sterile spatula, the brain was extracted from the opened cranium and transferred to a 60 mm petri dish (Corning) containing sterile, ice cold Hank's balanced salt solution (HBSS). The meningial tissue was removed from the cortex, the cortex was gently teased away from the subcortical structures and transferred to a new 60 mm petri dish containing ice cold HBSS. Using a pair of fine, curved forceps, the desired cortical material was pinched from the remainder of the cortex and transferred to a new 60 mm petri dish containing ice cold HBSS. For most experiments, only tissue in the immediate vicinity of the subventricular zone was collected while in a few experiments, almost the entire cortex was pinched leaving only the outer most layer of cortical tissue behind. After harvesting all cortical tissue, the tissue was minced using two #11 scalpel blades that were repeatedly drawn across each other. After the majority of the tissue was minced into approximately 1 mm cubes, the HBSS was removed and replaced with 4 ml of trypsin/EDTA (Gibco—0.5%/5.3 mM) plus 1 ml of DNase (Sigma—0.01%). The petri dish containing tissue and enzymes were placed in a 37° C. incubator for 30 minutes and agitated every 5 minutes. After 30 minutes, the tissue was removed from the incubator and 1 ml 0.1 mg/ml of soybean trypsin inhibitor was added. Tissue was transferred to a 15 ml conical tube, spun at 500×g for 10 minutes in a refrigerated centrifuge. Supernatant was removed, the pellet was resuspended in 10 ml of DMEM+10% FBS, passed first through a 100 μm filter (Falcon) and finally through a 40 μm filter (Falcon). A cell count was performed to determine the final volume of media needed to yield a cell density of 1×10^6 viable cells per ml. Five hundred microliters of supernatant containing 5×10^5 viable cells was added to each well of 24 well cluster plates previously coated with 5 μg/ml poly lysine.
To remove the cellular debris, all plates were washed 24 hours after plating. Each plate was gently rocked several times, the media was removed and replaced with 1 ml of 37° C. DMEM. […]

The subject of assay [2] is compressive injuries to the spinal cords of rats. Briefly: Compressive spinal cord injury, closure of cavities. It counts as in vivo, rat. To be noted: compound in a saline vehicle; vs untreated or saline treated rats. From the text:
In another study, cavities are induced by compressive injuries to the spinal cords of rats. In the study, rats are either untreated, treated with a saline vehicle, or treated with N-[4-[(4-fluorophenyl)sulfonyl]phenyl]acetamide in a saline vehicle.

[3] abbreviates: study of subventricular zone vs whole cortex cultures, four weeks after treatment.

As for `CC(=O)Nc1ccc(S(=O)(=O)c2ccc(F)cc2)cc1` [N-[4-[(4-fluorophenyl)sulfonyl]phenyl]acetamide], in assay [1] (four weeks post treatment, vs untreated control wells), the “number of β-tubulin positive cells” value is on record as “increased numbers of β-tubulin positive cells”. The eNCAM expression result in assay [1] (one week post treatment, vs untreated control samples) is on record as “Enhanced expression of eNCAM”. Moreover, the MAP-II expression result in assay [1] (six weeks post treatment, vs untreated control samples) is “MAP-II expression is enhanced”. In assay [1] (setting [3]), the “number of MAP II positive cells” value is on record as “Greater numbers” and the “number of β-tubulin positive cells” value is “Greater numbers”. For the same compound, the “extent of closure of the cavity in the spinal cord” value in assay [2] was “most extensive closure of the cavity”.

For the origin of these results see patent US7271187B2, “Compositions and methods for promoting tissue regeneration” (priority 2000, dated 2007).
